This passage reports solubility, IC50 and Activity results from ChEMBL document CHEMBL4814066, “Amphiphilic peptide-based MMP3 inhibitors for intra-articular treatment of knee OA” (Bioorg Med Chem, 2021).

Active and inactive are the calls of the source. No cut-off for these calls is given here. Residues, ends and D or L forms follow the SMILES beside them.

Data set [1] is described as follows: Solubility in water at 1 mg/ml. The data set is classed as physicochemical. Particulars: buffer.
The target in data set [2] is Stromelysin-1 (Homo sapiens, UniProt P08254). Description: Inhibition of human MMP3 catalytic subunit by fluorometric analysis.
Stromelysin-1, sequence (P08254 whole entry): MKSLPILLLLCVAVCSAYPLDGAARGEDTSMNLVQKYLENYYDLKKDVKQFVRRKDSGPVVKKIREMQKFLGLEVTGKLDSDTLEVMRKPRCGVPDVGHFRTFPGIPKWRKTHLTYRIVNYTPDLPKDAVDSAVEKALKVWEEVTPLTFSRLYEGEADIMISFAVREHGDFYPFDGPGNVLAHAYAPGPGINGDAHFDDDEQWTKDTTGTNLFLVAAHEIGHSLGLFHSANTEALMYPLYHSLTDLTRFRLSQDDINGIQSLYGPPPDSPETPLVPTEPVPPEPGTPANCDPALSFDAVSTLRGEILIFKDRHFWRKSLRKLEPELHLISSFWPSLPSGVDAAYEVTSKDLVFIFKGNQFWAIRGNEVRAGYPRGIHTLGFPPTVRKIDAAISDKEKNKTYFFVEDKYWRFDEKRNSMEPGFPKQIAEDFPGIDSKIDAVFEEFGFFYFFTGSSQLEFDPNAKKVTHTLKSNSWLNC
Data set [3] can be described thus: Cytotoxicity against mouse BALB/3T3 cells clone A31 incubated for 24 hrs by Alamar blue assay. The data set is classed as cell-based. Particulars: BALB/3T3 clone A31, 24 h.
Data set [4] has as its system Cartilage tissue. Description: Antiinflammatory activity against bovine normal hyaline femoral condyles cartilage assessed as reduction in IL-1beta/OSM-induced collagen release at 6 to 127 uM incubated for 21 days with media replenishment for every 7 days relative to control. The format is functional, tissue-based. The following applies: Bos taurus, dose 6-127 µM, time 21.0 day.

For data set [5], the system named is Cartilage tissue. Description: Antiinflammatory activity against bovine normal hyaline femoral condyles cartilage assessed as reduction in IL-1beta/OSM-induced collagen release at 93 uM incubated for 21 days with media replenishment for every 7 days relative to control. The following applies: Bos taurus, time 21.0 day. The data set is classed as functional, tissue-based.

A word on the IC50: it is the midpoint of a concentration-inhibition curve. A lower IC50 goes with greater potency in that assay. `CCCCCCCCC/C=C/CCCCCCCC(=O)N[C@@H](CS)C(=O)NCC(=O)N[C@@H](CCCNC(=N)N)C(=O)O`: the solubility result in data set [1] was “Insoluble”. Further, the concentration for half-maximal inhibition (IC50) in data set [2] was > 50 µM.
For `CC(=O)N[C@@H](CCCNC(=N)N)C(=O)N[C@@H](CS)C(=O)NCC(N)=O` (Ac-Arg-Cys-Gly-NH2), in that order: “Soluble” and 95.3 µM.
For `CC(=O)N[C@@H](CS)C(=O)NCC(=O)N[C@@H](CCCNC(=N)N)C(=O)N[C@@H](CCCCN)C(=O)O` (Ac-CGRK-OH), in that order: “Soluble” and > 50 µM.
As to `CC(=O)N[C@@H](CS)C(=O)NCC(=O)N[C@@H](CCCNC(=N)N)C(=O)O` (Ac-Cys-Gly-Arg-OH), in data set [1], the solubility entry is listed as “Insoluble”. The compound also came in with an IC50 in data set [2] of 850 µM.
Turning to `CC(=O)N[C@@H](CCCNC(=N)N)C(=O)N[C@@H](CS)C(=O)NCC(=O)N[C@H](C(N)=O)C(C)C` (Ac-RCGV-NH2), in data set [1], the solubility result was “Soluble”. For the same compound, the IC50 in data set [2] stood at 10.2 µM; in data set [3] it was 253 µM. Also, the outcome in data set [4] was Active.
Take `CC(C)[C@H](NC(=O)CNC(=O)[C@H](CS)NC(=O)[C@@H](N)CCCNC(=N)N)C(N)=O` (H-RCGV-NH2): the solubility entry in data set [1] is “Soluble”. Further, the IC50 in data set [2] turned out to be 173 µM.
For `CCCCCCCCNC(=O)C[C@H](NC(=O)CNC(=O)[C@H](CS)NC(=O)[C@@H](N)CCCNC(=N)N)C(N)=O` (HELM PEPTIDE1{R.C.G.D.[am]}|CHEM1{[CCCCCCCCN[*:1]]}$PEPTIDE1,CHEM1,4:R3-1:R1$$$V2.0), in that order: “Insoluble” and > 200 µM.
In the same order, the values of `CCCCCCCC(=O)N[C@@H](CS)C(=O)NCC(=O)N[C@@H](CCCNC(=N)N)C(=O)O` (HELM PEPTIDE1{[CCCCCCCC(=O)[*:2]].C.G.R}$$$$V2.0) are “Insoluble” and 4.4 µM.
Take `CCCCCCCCCCCC(=O)N[C@@H](CS)C(=O)NCC(=O)N[C@@H](CCCNC(=N)N)C(=O)N[C@@H](CCCCN)C(=O)O` (HELM PEPTIDE1{[CCCCCCCCCCCC(=O)[*:2]].C.G.R.K}$$$$V2.0): the solubility entry in data set [1] was “Soluble”. The IC50 stood at 3.2 µM in data set [2] and 186 µM in data set [3]. Besides, in data set [5], the outcome was Active.
In the case of `CCCCCCCCCCCC(=O)N[C@@H](CS)C(=O)NCC(=O)N[C@@H](CCCNC(=N)N)C(=O)O` (HELM PEPTIDE1{[CCCCCCCCCCCC(=O)[*:2]].C.G.R}$$$$V2.0), the solubility result in data set [1] is recorded as “Insoluble”. In data set [2], this compound came in with an IC50 of 7 µM.
For `CCCCCCCCNC(=O)C[C@H](NC(=O)CNC(=O)[C@H](CS)NC(=O)[C@H](CCCNC(=N)N)NC(C)=O)C(N)=O` (HELM PEPTIDE1{[ac].R.C.G.D.[am]}|CHEM1{[CCCCCCCCN[*:1]]}$PEPTIDE1,CHEM1,5:R3-1:R1$$$V2.0), in that order: “Soluble” and 61.4 µM.
In the same order, the values of `CCCC[C@H](NC(=O)CNC(=O)[C@H](CS)NC(=O)[C@H](CCCNC(=N)N)NC(C)=O)C(N)=O` (HELM PEPTIDE1{[ac].R.C.G.[Nle].[am]}$$$$V2.0) are “Soluble” and 79.5 µM.
